Among the test systems are CAKI-1 renal; IGROV1 ovarian; MOLT-4 leukemia; OVCAR-3 ovarian; OVCAR-4 ovarian; OVCAR-8 ovarian; SF-295 CNS; SNB-19 CNS; SNB-75 CNS; UACC-257 melanoma.
Common to all, as to test: NCI tumour cell line growth inhibition, 48 h

The source of these data is PubChem BioAssay (NCI).

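Method: 48-hour compound exposure of cells in 96-well plates, five concentrations, linear interpolation of endpoints. GI50 = concentration required for 50% inhibition of growth. The concentration for full growth arrest is given as TGI.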 Bounds are passed on as bounds.

On to `O=[Se]([O-])c1ccccc1.O=[Se]([O-])c1ccccc1.[OH3+].[OH3+].[Pt+2]`, for which the GI50 was 11 µM in the test on CAKI-1 renal; 9.02 µM with IGROV1 ovarian; 3.62 µM in the test with MOLT-4 leukemia; 7.91 µM in the test on OVCAR-3 ovarian; 2.15 µM with OVCAR-4 ovarian; 3.03 µM in the test on OVCAR-8 ovarian. For the same molecule, the GI50 in the test on SF-295 CNS was 3.42 µM; in the test with SNB-19 CNS, 10.9 µM; with SNB-75 CNS it was 6.17 µM; with UACC-257 melanoma it was 2.96 µM. For the same molecule, the TGI in the test with CAKI-1 renal is > 26.4 µM; in the test with IGROV1 ovarian it was > 42 µM; with MOLT-4 leukemia it was > 42.4 µM; in the test with OVCAR-3 ovarian, 32.8 µM; in the test with OVCAR-4 ovarian, 10.3 µM; in the test on OVCAR-8 ovarian, 20.2 µM. The TGI in the test on SF-295 CNS stood at 16.9 µM; in the test with SNB-19 CNS, 33.7 µM; in the test on SNB-75 CNS it was 33.8 µM; with UACC-257 melanoma, 11.8 µM.

Consider `CSC1=Nc2ccccc2N(C)c2c1c(-c1ccccc1)nn2C`, for which the TGI with CAKI-1 renal was > 100 µM; with IGROV1 ovarian it was > 100 µM; in the test on MOLT-4 leukemia, 31.7 µM; in the test on OVCAR-3 ovarian, > 100 µM; in the test with OVCAR-4 ovarian, > 100 µM; in the test with OVCAR-8 ovarian, > 100 µM. For the same molecule, the TGI with SF-295 CNS was 33.6 µM; with SNB-75 CNS, > 100 µM; in the test with UACC-257 melanoma it was > 100 µM.

On to `N#Cc1c(NC(=S)NC(=O)c2ccccc2)nc2c(c1-c1ccccc1)CCC2`, for which the TGI with CAKI-1 renal, with IGROV1 ovarian, in the test with MOLT-4 leukemia, in the test on OVCAR-3 ovarian, with OVCAR-4 ovarian and with OVCAR-8 ovarian was > 100 µM throughout. Moreover, the TGI in the test with SF-295 CNS, in the test with SNB-19 CNS, in the test on SNB-75 CNS and with UACC-257 melanoma was > 100 µM in each case.

`COC1OC(=O)[C@H]2O[N+]([O-])=C(C)[C@@H]12` (stereo not given in full): the TGI in the test with CAKI-1 renal, in the test with IGROV1 ovarian, in the test on MOLT-4 leukemia, in the test on OVCAR-3 ovarian, with OVCAR-4 ovarian and with OVCAR-8 ovarian was > 100 µM each time. For the same molecule, the TGI with SF-295 CNS, with SNB-19 CNS, with SNB-75 CNS and in the test with UACC-257 melanoma was > 100 µM each time.

For `C=CC(=O)Nc1cccc(-c2nc(SC)nc(Nc3ccccc3OC)c2C#N)c1`, the GI50 was 1.71 µM in the test with CAKI-1 renal; 2.62 µM in the test with MOLT-4 leukemia; 1.87 µM in the test with OVCAR-3 ovarian; 2.07 µM with OVCAR-8 ovarian; 1.95 µM in the test on SF-295 CNS; 2.31 µM in the test with SNB-19 CNS. For the same molecule, the results for the GI50 in the test with SNB-75 CNS and with UACC-257 melanoma were 1.5 µM and 2.53 µM, respectively. Also, the TGI was 4.3 µM in the test with CAKI-1 renal; 83.5 µM in the test on MOLT-4 leukemia; 3.58 µM in the test on OVCAR-3 ovarian; 5.42 µM with OVCAR-8 ovarian; 4.46 µM in the test with SF-295 CNS; 6.51 µM in the test with SNB-19 CNS. The results for the TGI with SNB-75 CNS and in the test on UACC-257 melanoma were 4.35 µM and 8.78 µM, respectively.

`Nc1n[nH]c(=O)[nH]1`: the TGI in the test with CAKI-1 renal, in the test with IGROV1 ovarian, in the test on MOLT-4 leukemia, in the test on OVCAR-3 ovarian, in the test on OVCAR-4 ovarian and in the test with OVCAR-8 ovarian was > 100 µM in each case. Moreover, the TGI in the test on SF-295 CNS, in the test on SNB-19 CNS, in the test with SNB-75 CNS and in the test on UACC-257 melanoma was > 100 µM each time.

Turning to `O=C1CC(=O)N(c2ccccc2)N1/C(=C/c1ccccc1)c1ccccc1`, the TGI with CAKI-1 renal was 33.7 µM; with IGROV1 ovarian, 43.9 µM; in the test with MOLT-4 leukemia, 6.54 µM; in the test on OVCAR-3 ovarian, 57.1 µM; in the test on OVCAR-4 ovarian, 60.5 µM; in the test with OVCAR-8 ovarian, 45.3 µM. Besides, the TGI in the test with SF-295 CNS stood at 35.6 µM; in the test on SNB-19 CNS, 43.6 µM; with SNB-75 CNS it was 83.2 µM; with UACC-257 melanoma, 59.2 µM.
